This note sets out measurements from patent US5935960A, “Pro-drugs of 5-(2-(4-(1,2-benzisothiazol-3-yl)-1-piperazinyl)ethyl)-6-chloro-1,3-dihy dro-2H-indol-2-one” (Pfizer Inc., priority 1997, dated 1999).

One may read the IC50 as the midpoint of a concentration-inhibition curve. One may read the pKa as the negative logarithm of the acid dissociation constant. Broadly, the solubility is the dissolved amount per volume that the medium holds.

The structures appear in SMILES notation. Structures can show the parent of a compound that is named as a salt. Where two headings read alike, the source gives them in different places.

Data set [1] deals with T1, Dopamine D-4 receptor (Homo sapiens, UniProt P21917).
T1 construct: expressed in transfected cells; host or cells: COS-7 cells
T1 sequence (P21917 1-419): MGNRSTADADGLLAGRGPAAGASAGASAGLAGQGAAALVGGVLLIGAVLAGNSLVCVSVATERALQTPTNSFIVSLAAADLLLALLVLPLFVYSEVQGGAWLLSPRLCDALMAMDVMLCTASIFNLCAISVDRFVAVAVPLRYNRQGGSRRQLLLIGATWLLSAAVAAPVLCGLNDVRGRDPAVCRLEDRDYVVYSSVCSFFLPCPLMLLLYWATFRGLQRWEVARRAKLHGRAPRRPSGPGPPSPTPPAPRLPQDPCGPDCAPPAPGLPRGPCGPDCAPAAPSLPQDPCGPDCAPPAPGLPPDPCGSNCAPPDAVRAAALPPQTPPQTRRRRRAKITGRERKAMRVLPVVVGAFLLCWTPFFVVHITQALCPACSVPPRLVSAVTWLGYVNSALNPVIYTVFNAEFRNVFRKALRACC
As to the kind of experiment: Dopamine D-4 radioligand binding (3H-spiroperidol, human D4-transfected COS-7 cells). The settings on record: 3H-spiroperidol 0.1 nM, pH 7.4, read-out: Radioligand Binding Results, D4 (apparent Ki). The source says:
(§1) The compound of formula I is therefore useful in the treatment or prevention of psychotic disorders, such as schizophrenia. […] Specifically, the standard methods for determining neuroleptic activity are based on Dopamine D-2, Dopamine D-3, Dopamine D4, 5-hydroxytryptamine-1A (5-HT-1A), 5-hydroxytryptamine-2C (5-HT-2C), and 5-hydroxytryptamine-2A (5-HT-2A) receptor binding studies. Tissues or membranes used to perform these studies are derived from rat, pig, or from cell lines expressing human receptor subtypes. LTK-cells expressing the human D2Long receptor were obtained from Dr. Olivier Civelli, Oregon Health Sciences University, Portland, Oreg. Chinese hamster ovary cells (CHO) expressing the human D3 receptor were obtained from Dr. J. C. […]
(§2) The following protocol describes one possible method for determining activity for the compound of formula I. Specific assay conditions for each receptor is described in Table 1, below. […] Non-specific binding is determined by radioligand binding in the presence of a saturating excess of a known competitor for the receptor of interest (as listed in Table 1). […] Membrane-bound ligand is determined by liquid scintillation counting of the filters in Ready-Safe scintillation cocktail (for tritiated ligands), or by direct counting in a gamma counter (for [^125 .vertline.] ligands). […]

Data set [2] has as its target T2, Dopamine D-3 receptor (Homo sapiens, UniProt P35462).
T2 construct: expressed in transfected cells; host or cells: CHO cells (from Dr. J. C. Schwartz, INSERM, Paris)
Kind of data set: Dopamine D-3 radioligand binding (3H-spiroperidol, human D3-transfected CHO cells). The settings on record: 3H-spiroperidol 0.1 nM, pH 7.4, read-out: Radioligand Binding Results, D3 (apparent Ki).
Description: as §1, §2

In data set [3] the target is T3, 5HT-1A receptor (Rattus norvegicus, UniProt P19327).
T3 construct: rat cortex; from tissue; host or cells: rat cortex
T3 sequence (P19327 1-422): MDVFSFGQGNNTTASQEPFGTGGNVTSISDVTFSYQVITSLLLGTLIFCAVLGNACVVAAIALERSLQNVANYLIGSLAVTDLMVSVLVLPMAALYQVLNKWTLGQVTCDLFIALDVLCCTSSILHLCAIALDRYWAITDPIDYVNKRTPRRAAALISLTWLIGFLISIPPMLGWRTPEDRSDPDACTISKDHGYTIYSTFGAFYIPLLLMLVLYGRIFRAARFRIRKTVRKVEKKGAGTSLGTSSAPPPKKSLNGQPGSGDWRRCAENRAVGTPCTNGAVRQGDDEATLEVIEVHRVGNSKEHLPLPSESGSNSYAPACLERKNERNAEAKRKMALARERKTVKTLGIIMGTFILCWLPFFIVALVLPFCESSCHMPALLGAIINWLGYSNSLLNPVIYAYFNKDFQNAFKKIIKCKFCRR
Kind of data set: 5HT-1A radioligand binding (3H-8OH-DPAT, rat cortex). The settings on record: 3H-8OH-DPAT 1.5 nM, pH 7.7, read-out: Radioligand Binding Results, 5HT1A (IC50).
Description: as §1, §2

In data set [4] the target is T4, 5HT-2A receptor (Rattus norvegicus, UniProt P14842).
T4 construct: rat frontal; from tissue; host or cells: rat frontal cortex
As to the kind of experiment: 5HT-2A radioligand binding (3H-ketanserin, rat frontal cortex). The settings on record: 3H-ketanserin 0.4 nM, pH 7.7, read-out: Radioligand Binding Results, 5HT2 (IC50).
Description: as §1, §2

The nature of data set [5]: titration with 0.2032 Molar sodium hydroxide (pKa). It is filed as physicochemical. The settings on record: dihydrochloride titrated with 0.2032 M NaOH. Here is the method:
The compound (5.0 g, 12.1 mmol) from Example 1 was suspended in 75 mL of THF at room temperature, and then 1.97 mL of concentrated hydrochloric acid was slowly added over 30 min affording a gummy solid. Water (5 mL) was added and the gummy solids were stirred for 6 hours to produce a finely divided solid which was granulated overnight. The mixture was filtered and the filter cake was washed with THF (10 mL). The product was dried in vacuo at 25° C. overnight under a nitrogen bleed to give 5.87 g of the title dihydrochloride compound as a tan solid (mp=232-240° C. with decomposition).

Data set [6] in a line: aqueous solubility. It is filed as physicochemical. The settings on record: dihydrochloride salt, at about 25° C.

T2 sequence (P35462 whole entry): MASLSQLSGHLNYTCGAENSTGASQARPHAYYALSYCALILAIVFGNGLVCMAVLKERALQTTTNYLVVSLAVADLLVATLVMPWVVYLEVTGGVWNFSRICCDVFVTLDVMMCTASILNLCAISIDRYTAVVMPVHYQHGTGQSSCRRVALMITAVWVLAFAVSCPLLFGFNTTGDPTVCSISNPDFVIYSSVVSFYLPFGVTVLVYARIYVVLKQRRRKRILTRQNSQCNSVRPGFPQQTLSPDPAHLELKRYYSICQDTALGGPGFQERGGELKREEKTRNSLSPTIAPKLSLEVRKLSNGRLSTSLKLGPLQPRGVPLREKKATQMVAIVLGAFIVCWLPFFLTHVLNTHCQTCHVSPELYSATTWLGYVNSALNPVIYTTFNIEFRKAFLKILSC
T4 sequence (P14842 whole entry): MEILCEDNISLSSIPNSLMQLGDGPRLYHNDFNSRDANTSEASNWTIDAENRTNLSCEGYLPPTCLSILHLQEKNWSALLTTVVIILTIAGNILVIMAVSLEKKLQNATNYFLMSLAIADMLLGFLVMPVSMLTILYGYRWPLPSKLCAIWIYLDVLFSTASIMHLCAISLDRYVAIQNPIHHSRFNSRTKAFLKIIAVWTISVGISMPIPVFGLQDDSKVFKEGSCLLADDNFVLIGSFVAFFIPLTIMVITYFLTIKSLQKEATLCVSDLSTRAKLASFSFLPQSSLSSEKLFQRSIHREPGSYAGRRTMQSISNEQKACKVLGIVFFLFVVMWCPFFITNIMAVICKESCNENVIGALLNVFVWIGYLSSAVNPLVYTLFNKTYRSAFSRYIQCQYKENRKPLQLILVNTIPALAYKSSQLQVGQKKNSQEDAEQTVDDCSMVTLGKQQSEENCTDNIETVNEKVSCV

As for `N=C(c1ccccc1S)N1CCN(CCc2cc3c(cc2Cl)NC(=O)C3)CC1` [Example 1, 1-[2-(6-chloro-2,3-dihydro-2-oxo-1H-indol-5-yl)ethyl]-4-[imino(2-mercaptophenyl)methyl]piperazine], the Ki in data set [1] was determined as 59.2 nM; in data set [2] it was 5.8 nM. Also, the IC50 in data set [3] was 12 nM; in data set [4] it was 0.35 nM.

Consider `N=C(c1ccccc1S)N1CCN(CCc2cc3c(cc2Cl)NC(=O)C3)CC1` [Example 2, 1-[2-(6-Chloro-2.3-dihydro-2-oxo-1H-indol-5-yl)ethyl]-4-[(imino(2-mercaptophenyl)methyl]piperazinedihydrochloride], for which the pKa amounted to 3.1 in data set [5] (first equivalence point pH 4.33, read-out: pKa (first)) and 5.5 in data set [5] (second equivalence point pH 8.22, read-out: pKa (second)). For the same compound, the “aqueous solubility relative to ziprasidone hydrochloride (times higher)” value in data set [6] was “approximately 300 times”. The solubility in data set [6] (water) is approximately 25 mg/mL.
